Assay results reported in PubChem BioAssay (NCI).
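Five concentrations, 48 hours, 96-well plates. The concentration for 50% growth inhibition is given as GI50. TGI denotes the concentration required for complete inhibition of growth.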

Test system: MDA-MB-468 breast
Test: NCI tumour cell line growth inhibition, 48 h

Compound | GI50 [nM] | TGI [nM]
CN(C)CCCOc1cccc(NC2=C(Cl)C(=O)C(Nc3cccc(OCCCN(C)C)c3)=C(Cl)C2=O)c1 | 212 | 458
O=C(CC1(O)C(=O)Nc2ccc(F)cc21)c1ccc(C(=O)NCC2CCC3(CC2)OOC2(CCCCC2)OO3)cc1 (stereo unspecified) | 4540 | 21600
C=C1C(=O)O[C@H]2[C@H]1CC/C(COC(=O)N[C@H]1C[C@H](O[C@H]3C[C@](O)(C(=O)CO)Cc4c(O)c5c(c(O)c43)C(=O)c3c(OC)cccc3C5=O)O[C@@H](C)[C@H]1O)=C\CC[C@@]1(C)O[C@@H]21 | 793 | 2040
c1ccc(-c2nc3n(c2-c2ccc4c(c2)OCO4)CCC3)nc1 | 5810 | 17000
COc1ccc(Nc2nc(Nc3cc(C)[nH]n3)c3cc(OC)c(OC)cc3n2)cc1 | 1010 | 2530
FC(F)(F)c1ccc(-c2nn3ncccc3c2-c2ccnc(Nc3ccc4c(c3)OCCO4)n2)cc1 | 4520 | 17600
CC(=O)c1ccc2c(c1)N(CCCN1CCN(CCO)CC1)c1ccccc1S2 | 1670 | 3210
CCOC(=O)c1ccc(NC(=O)NC2=NCCS2)cc1 | 623 | > 26400
Cc1cc(CCl)c(C)cc1CCl | 379 | 1600
COc1cc(OCc2cccc(-c3ccccc3)c2C)cc(OC)c1CN1CCCCC1C(=O)NCCOCCOCCN (stereo unspecified) | 1700 | 3430
COc1ccc(C(=O)c2sc3nc(-c4ccccc4OC)ccc3c2N)cc1OC | 6280 | > 100000
Nc1c(C(=O)c2cccc(C#CCN3CCCCC3)c2)cnn1-c1ccc(F)cc1 | 7720 | > 25000
CCCC1(CN2c3ccccc3Sc3ccc(Cl)cc32)CCN(CC)C1 (stereo unspecified) | 1600 | 3140
COc1cc(F)ccc1-c1cc(Nc2cc(CS(C)(=N)=O)ccn2)ncc1F (stereo unspecified) | 91.5 | 445
Nc1nc(N)c2cc(Sc3ccc4ccccc4c3)ccc2n1 | 1100 | 2390
COc1ccc(-c2cnnn2-c2nonc2-n2cccc2)cc1OC | 2000 | 7900
C/C(=C(/c1ccccc1)c1ccc(OCC(O)CNCCN2CCOCC2)cc1)c1ccccc1 (stereo unspecified) | 1410 | 2850
CCSc1ccc([C@@H]2[C@@H](O)C(=O)N2c2cc(OC)c(OC)c(OC)c2)cc1 | < 10 | 57600
CCOP(=O)(OCC)OC[C@]12CCC(C)(C)C=C1[C@H]1CC[C@@H]3[C@@]4(C)CC[C@H](OP(=O)(OCC)OCC)C(C)(C)[C@@H]4CC[C@@]3(C)[C@]1(C)CC2 | 1300 | 2930
N=c1ccc2nc3ccc(N)cc3sc-2c1 | 3020 | 8120
COc1ccc(C2=NC(=O)NC2c2ccc(OC)cc2)cc1 (stereo unspecified) | 4710 | 43700
Cc1cc(NCc2cc(Nc3ccnc4cc(Cl)ccc34)ccc2F)nc(N2CCOCC2)n1 | 1940 | 5640
CCOC(=O)c1sc(-c2ccc(OS(=O)(=O)C[C@]34CCC(CC3=O)C4(C)C)c(C=O)c2)nc1C | 966 | 3300

Compound | GI50 [nM] | TGI [nM]
Cc1ccc2c(n1)C(=O)C(Cl)=C(Nc1ccc(C(=O)OC(C)(C)C)cc1)C2=O | 11100 | 26700
CN(Cc1ccc(F)cc1)c1ccc(CO)c(Cl)c1 | 58 | 207
CCN1[C@@H](C(=O)NC23CCC(C(=O)O)(CC2)CC3)[C@H](c2cccc(Cl)c2F)[C@]2(C(=O)Nc3cc(Cl)ccc32)C12CCCCC2 | 2180 | 6680
Cc1ccc2sc3c(c2c1)OC(N)=C(C#N)C3c1cccc(F)c1 (stereo unspecified) | 225 | 724
Cc1cn(-c2cccc(NC(=O)c3ccc(C)c(Nc4nccc(-c5cccnc5)n4)c3)c2)cn1 | 1610 | 3180
COc1ccc2[nH]cc(-c3cc(N)n4nc(-c5c[nH]c6ccc(OC)cc56)cc4n3)c2c1 | 1730 | 3750
Cn1c(=O)n(C)c2cc(CNCCNc3ccnc4cc(Cl)ccc34)ccc21 | 14400 | 32400
COc1cc([C@@H]2c3cc4c(cc3[C@H](OC(C)=O)[C@H]3COC(=O)[C@@H]23)OCO4)cc(OC)c1OC | 293 | 5450
CCCCCCCCCc1ccc(OCCOCCOCCOCCOCCOCCOCCOCCOCCO)cc1 | 66 | 1180
CCCN(CCC)c1ccc(C=O)c(Cl)c1 | 53.8 | 243
CCn1cc(/C=C2\Oc3cc(OCC#N)ccc3C2=O)c2cc(OC)ccc21 | 802 | 13700
C=C1C(=O)O[C@H]2[C@H]1CC/C(Cn1cc(-c3ccc(N)cc3)nn1)=C\CC[C@@]1(C)O[C@@H]21 | 1770 | 4210
O=C(Nc1cccc2[nH]c(C(F)(F)F)nc12)c1cc(Cl)ccc1Cl | 2520 | 7740
COc1ccc(-c2nc(-c3nc4cc(Cl)c(F)cc4[nH]3)c3ccccn23)cc1 | 2930 | 30300
COc1cccc(CNc2ncnc3c2ncn3C2OC(CO)C(O)C2O)c1O (stereo unspecified) | 137 | 2090
COc1cc(OC)c2sc(-c3ccc(-n4cncc4-c4ccc(OC)c(OC)c4)cc3)nc2c1 | 4150 | > 100000
COc1cc(C2=NN(C(C)=O)C(c3cc(OC)c(OC)c(OC)c3)C2)ccc1O (stereo unspecified) | 265 | 3610
Cc1ccc(S(=O)(=O)c2nc(-c3ccccc3)oc2S(C)(=O)=O)cc1 | 1770 | 3840
COc1ccc2c(c1)C(=O)/C(=C/c1cccc(OCC(=O)Nc3nc(C)c(C)s3)c1)O2 |  | 17.6
Clc1ccc(/C=C/c2ccc3ccccc3n2)cc1 | 419 | 2950
C=C1C(=O)O[C@H]2[C@H]1CC/C(COC(=O)NCc1ccc(Cn3c(=O)sn(CCCCC)c3=O)cc1)=C\CC[C@@]1(C)O[C@@H]21 | 1190 | 2640
CC(C)(C)[Si](C)(C)OC1[C@@H](CNC(N)=O)O[C@@H](n2cnc3c(NC(=O)Nc4ccccc4)ncnc32)[C@H]1O[Si](C)(C)C(C)(C)C (stereo partly specified) | 2150 | 8230
Cc1cc(N/N=C/c2nc(-c3ccc(Cl)cc3)oc2C)c2cc(Br)ccc2n1 | 1600 | 3630
